US20220257597A1, “Methods of Administering Elagolix” (AbbVie Inc., priority 2021, published 2022)
Like-named read-outs stand apart in the source and are kept apart here.

Key:
[1] = Drug interaction studies: change in pharmacokinetics of elagolix in the presence of co-administered drugs; type: in vivo, human; details: for changes in elagolix exposures when co-administered, in words: elagolix 300 mg twice daily, rosuvastatin 20 mg once daily, sertraline 25 mg once daily or fluconazole 200 mg single dose
[2] = Drug interactions: effects of ORIAHNN on other drugs; details: co-administration of ORIAHNN
[3] = Drug interactions: effects of ORILISSA on other drugs; details: co-administration of ORILISSA
[4] = Drug interaction studies: change in pharmacokinetics of co-administered drug in the presence of elagolix; type: in vivo, human; details: for changes in exposures when co-administered with elagolix, in words: elagolix 300 mg twice daily
Procedure: Drug interaction studies were performed with elagolix and other drugs likely to be co-administered and with drugs commonly used as probes for pharmacokinetic interactions. Tables 8 and 9 summarize the pharmacokinetic effects when elagolix was co-administered with these drugs.

CYP3A = test: Substrate of / metabolism by CYP3A; type: in vitro ADME
[5] = Phase 1 open-label study: coadministration of combined oral contraceptive (EE+LNG) with elagolix sodium, pharmacokinetics, safety and tolerability; type: in vivo, human; details: for AUCinf ratio, co-administered in the presence of elagolix vs alone / Cmax ratio, co-administered in the presence of elagolix vs alone: elagolix 200 mg twice daily
Procedure: Objective: To evaluate the effect of elagolix on the pharmacokinetics, safety, and tolerability of a single dose of a combined oral contraceptive (COC) containing EE and LNG in healthy premenopausal female subjects. […] [table] […] Diagnosis and Main Criteria for Inclusion: Subjects were premenopausal females, and age was between 18 and 49 years, inclusive. Test Product, Dose/Strength/Concentration, and Mode of Administration: […] EE/LNG 0.02 mg/0.1 mg tablet; All study drugs were administered orally. Duration of Treatment: […] EE/LNG: 0.02 mg/0.1 mg on two separate occasions. Criteria for Evaluation: Pharmacokinetic: Cmax, Tmax, t1/2 and AUC. Safety: Vital signs, physical examinations, laboratory tests, and adverse events. […] The tabulation of the number of subjects with treatment-emergent adverse events also was provided with further breakdowns by severity rating and relationship to study drug.

[6] = digoxin 0.5 mg single dose, elagolix 200 mg twice daily x 10 days, N 11
[7] = COC 20 mcg EE/0.1 mg levonorgestrel
[8] = COC 20 mcg EE/0.1 mg levonorgestrel, listed as EE
[9] = Study Day 1: EE/LNG 0.02 mg/0.1 mg
[10] = ethinyl estradiol 20 mcg/levonorgestrel 0.1 mg single dose, elagolix 200 mg twice daily x 15 days, N 20
[11] = following elagolix 200 mg BID for 14 days
[12] = ethinyl estradiol 35 mcg and triphasic norgestimate 0.18/0.215/0.25 mg once daily, elagolix 150 mg once daily, N 21
[13] = midazolam 2 mg single dose, elagolix 150 mg once daily x 13 days, N 11
[14] = midazolam 2 mg single dose, elagolix 300 mg twice daily x 11 days, N 20
[15] = rosuvastatin 20 mg once daily, elagolix 300 mg twice daily x 7 days, N 10

## CO[C@H]1/C=C/O[C@@]2(C)Oc3c(C)c(O)c4c(O)c(c(/C=N/N5CCN(C)CC5)c(O)c4c3C2=O)NC(=O)/C(C)=C\C=C\[C@H](C)[C@H](O)[C@@H](C)[C@@H](O)[C@@H](C)[C@H](OC(C)=O)[C@@H]1C [Rifampin]
[1]; concomitant use of rifampin
  effect of concomitant use on plasma concentrations of elagolix, in words: increased

## C[C@H]1O[C@@H](O[C@H]2[C@@H](O)C[C@H](O[C@H]3[C@@H](O)C[C@H](O[C@H]4CC[C@@]5(C)[C@H](CC[C@@H]6[C@@H]5C[C@@H](O)[C@]5(C)[C@@H](C7=CC(=O)OC7)CC[C@]65O)C4)O[C@@H]3C)O[C@@H]2C)C[C@H](O)[C@@H]1O [digoxin]
[2]
  Effect on Plasma Exposure of Concomitant Drug (direction of change in AUC): ↑ digoxin
[3]
  Effect on Plasma Exposure of Concomitant Drug (direction of change in AUC): ↑ digoxin
[4]; [6]
  Ratio (90% CI) AUC, co-administration with elagolix vs medication alone: 1.26
  Ratio (90% CI) Cmax, co-administration with elagolix vs medication alone: 1.71

## C[C@]12CC[C@@H]3c4ccc(O)cc4CC[C@H]3[C@@H]1CC[C@@H]2O [estradiol]
CYP3A
  metabolism by CYP3A: metabolized partially by CYP3A

## C#C[C@]1(O)CC[C@H]2[C@@H]3CCc4cc(O)ccc4[C@H]3CC[C@@]21C [ethinyl estradiol, 17α-Ethynylestra-1,3,5(10)-triene-3,17β-diol]
[5]; [7]
  AUCinf ratio, co-administered in the presence of elagolix vs alone: 2.18
  Cmax ratio, co-administered in the presence of elagolix vs alone: 1.36
[5]; COC 20 mcg EE/0.1 mg levonorgestrel, elagolix 200 mg twice daily for 14 days
  increase in plasma EE concentration compared to COC alone: 2.2 fold
[5]; [8]
  AUCinf ratio, co-administered in the presence of elagolix vs alone: about 2.18
  Cmax ratio, co-administered in the presence of elagolix vs alone: about 1.36
[5]; [9]
  AUCinf, Central Value Reference: 0.494 ng·h/mL
  CCmax, Central Value Reference: 49.0 pg/mL
[5]; Study Day 18: EE/LNG 0.02 mg/0.1 mg + elagolix 200 mg
  CCmax, Central Value Test: 66.4 pg/mL
[5]; [10]
  Ratio (90% CI) AUC, co-administration with elagolix vs medication alone: 2.18
  Ratio (90% CI) Cmax, co-administration with elagolix vs medication alone: 1.36
[5]; female, human, in vivo, oral, Study Day 1: EE/LNG 0.02 mg/0.1 mg, read-out: AUCt, Central Value Reference
  AUC(0-t): 0.437 ng·h/mL
[5]; female, human, in vivo, oral, Study Day 18: EE/LNG 0.02 mg/0.1 mg + elagolix 200 mg, read-out: AUCinf, Central Value Test
  AUC(0-inf): 1.08 ng·h/mL
[5]; female, human, in vivo, oral, Study Day 18: EE/LNG 0.02 mg/0.1 mg + elagolix 200 mg, read-out: AUCt, Central Value Test
  AUC(0-t): 0.941 ng·h/mL
[5]; [11]
  increase in AUCinf: 118%
  increase in Cmax: 36%
[2]
  Effect on Plasma Exposure of Concomitant Drug (direction of change in AUC): ↑ethinyl
[3]
  Effect on Plasma Exposure of Concomitant Drug (direction of change in AUC): ↑ethinyl
[4]; [12]
  Ratio (90% CI) AUC, co-administration with elagolix vs medication alone: 1.30
  Ratio (90% CI) Cmax, co-administration with elagolix vs medication alone: 1.15

## OC(Cn1cncn1)(Cn1cncn1)c1ccc(F)cc1F [fluconazole]
[1]
  changes in elagolix exposures when co-administered, in words: No clinically significant changes
[4]
  changes in exposures when co-administered with elagolix, in words: No clinically significant changes

## Cc1ncc2n1-c1ccc(Cl)cc1C(c1ccccc1F)=NC2 [midazolam]
[2]
  Effect on Plasma Exposure of Concomitant Drug (direction of change in AUC): ↓ midazolam
[3]
  Effect on Plasma Exposure of Concomitant Drug (direction of change in AUC): ↓ midazolam
[4]; [13]
  Ratio (90% CI) AUC, co-administration with elagolix vs medication alone: 0.65
  Ratio (90% CI) Cmax, co-administration with elagolix vs medication alone: 0.81
[4]; [14]
  Ratio (90% CI) AUC, co-administration with elagolix vs medication alone: 0.46
  Ratio (90% CI) Cmax, co-administration with elagolix vs medication alone: 0.56

## C#C[C@]1(OC(C)=O)CC[C@H]2[C@@H]3CCC4=CC(=O)CC[C@@H]4[C@H]3CC[C@@]21C [norethindrone acetate]
CYP3A
  metabolism by CYP3A: metabolized partially by CYP3A

## CC(C)c1nc(N(C)S(C)(=O)=O)nc(-c2ccc(F)cc2)c1/C=C/[C@@H](O)C[C@@H](O)CC(=O)O [rosuvastatin]
[1]
  changes in elagolix exposures when co-administered, in words: No clinically significant changes
[2]
  Effect on Plasma Exposure of Concomitant Drug (direction of change in AUC): ↓ rosuvastatin
[3]
  Effect on Plasma Exposure of Concomitant Drug (direction of change in AUC): ↓ rosuvastatin
[4]; [15]
  Ratio (90% CI) AUC, co-administration with elagolix vs medication alone: 0.60
  Ratio (90% CI) Cmax, co-administration with elagolix vs medication alone: 0.99

## CN[C@H]1CC[C@@H](c2ccc(Cl)c(Cl)c2)c2ccccc21 [sertraline]
[1]
  changes in elagolix exposures when co-administered, in words: No clinically significant changes
[4]
  changes in exposures when co-administered with elagolix, in words: No clinically significant changes
